Test [1] has as its target Recombinant ROCK2 (Homo sapiens (Human), UniProt O75116). As to the kind of experiment: Lance Ultra Kinase Assay, ROCK2 inhibition. The test is classed as biochemical. As to conditions: ATP at Km, 30 min pre-incubation, 1 h reaction.
The target in test [2] is Recombinant ROCK1 (Homo sapiens (Human), UniProt Q13464). Nature of the test: Lance Ultra Kinase Assay, ROCK1 inhibition. Conditions: ATP at Km, 30 min pre-incubation, 1 h reaction. Type of test: biochemical.
Sequence of Recombinant ROCK1 (Q13464 whole entry): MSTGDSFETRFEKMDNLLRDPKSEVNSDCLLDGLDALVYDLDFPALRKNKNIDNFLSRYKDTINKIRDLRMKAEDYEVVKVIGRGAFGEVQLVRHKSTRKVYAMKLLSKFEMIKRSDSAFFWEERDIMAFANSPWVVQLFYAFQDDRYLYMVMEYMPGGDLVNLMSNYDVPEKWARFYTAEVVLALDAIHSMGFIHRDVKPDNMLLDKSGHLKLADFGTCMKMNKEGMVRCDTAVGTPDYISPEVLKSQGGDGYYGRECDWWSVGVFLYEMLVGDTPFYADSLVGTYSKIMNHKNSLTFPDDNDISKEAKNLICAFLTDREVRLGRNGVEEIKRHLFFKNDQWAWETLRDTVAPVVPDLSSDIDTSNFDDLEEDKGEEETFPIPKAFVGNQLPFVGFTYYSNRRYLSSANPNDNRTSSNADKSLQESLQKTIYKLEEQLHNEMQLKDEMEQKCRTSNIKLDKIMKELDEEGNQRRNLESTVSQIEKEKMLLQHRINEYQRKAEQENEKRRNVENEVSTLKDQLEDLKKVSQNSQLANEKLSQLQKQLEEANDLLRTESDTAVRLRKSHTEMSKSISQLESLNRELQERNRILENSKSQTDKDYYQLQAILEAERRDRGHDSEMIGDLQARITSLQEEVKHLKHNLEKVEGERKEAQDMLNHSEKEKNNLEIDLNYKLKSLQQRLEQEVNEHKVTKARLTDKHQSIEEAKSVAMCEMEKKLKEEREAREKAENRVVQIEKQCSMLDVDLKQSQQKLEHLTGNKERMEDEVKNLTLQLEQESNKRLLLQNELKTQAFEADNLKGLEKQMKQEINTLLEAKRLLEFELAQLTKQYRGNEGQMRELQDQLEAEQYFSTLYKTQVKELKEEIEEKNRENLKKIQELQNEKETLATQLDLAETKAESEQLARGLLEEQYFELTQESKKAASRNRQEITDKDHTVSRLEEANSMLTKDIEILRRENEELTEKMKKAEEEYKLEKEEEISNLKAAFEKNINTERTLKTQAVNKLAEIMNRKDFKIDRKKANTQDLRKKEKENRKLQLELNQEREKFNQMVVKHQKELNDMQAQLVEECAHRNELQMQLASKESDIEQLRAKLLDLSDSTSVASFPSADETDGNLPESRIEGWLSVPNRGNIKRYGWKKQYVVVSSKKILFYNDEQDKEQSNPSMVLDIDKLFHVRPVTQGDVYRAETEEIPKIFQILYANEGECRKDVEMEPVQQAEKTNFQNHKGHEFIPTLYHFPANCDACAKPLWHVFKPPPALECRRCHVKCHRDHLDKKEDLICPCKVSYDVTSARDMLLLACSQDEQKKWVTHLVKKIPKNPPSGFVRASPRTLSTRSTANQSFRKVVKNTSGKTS

Sequence of Recombinant ROCK2 (O75116 whole entry): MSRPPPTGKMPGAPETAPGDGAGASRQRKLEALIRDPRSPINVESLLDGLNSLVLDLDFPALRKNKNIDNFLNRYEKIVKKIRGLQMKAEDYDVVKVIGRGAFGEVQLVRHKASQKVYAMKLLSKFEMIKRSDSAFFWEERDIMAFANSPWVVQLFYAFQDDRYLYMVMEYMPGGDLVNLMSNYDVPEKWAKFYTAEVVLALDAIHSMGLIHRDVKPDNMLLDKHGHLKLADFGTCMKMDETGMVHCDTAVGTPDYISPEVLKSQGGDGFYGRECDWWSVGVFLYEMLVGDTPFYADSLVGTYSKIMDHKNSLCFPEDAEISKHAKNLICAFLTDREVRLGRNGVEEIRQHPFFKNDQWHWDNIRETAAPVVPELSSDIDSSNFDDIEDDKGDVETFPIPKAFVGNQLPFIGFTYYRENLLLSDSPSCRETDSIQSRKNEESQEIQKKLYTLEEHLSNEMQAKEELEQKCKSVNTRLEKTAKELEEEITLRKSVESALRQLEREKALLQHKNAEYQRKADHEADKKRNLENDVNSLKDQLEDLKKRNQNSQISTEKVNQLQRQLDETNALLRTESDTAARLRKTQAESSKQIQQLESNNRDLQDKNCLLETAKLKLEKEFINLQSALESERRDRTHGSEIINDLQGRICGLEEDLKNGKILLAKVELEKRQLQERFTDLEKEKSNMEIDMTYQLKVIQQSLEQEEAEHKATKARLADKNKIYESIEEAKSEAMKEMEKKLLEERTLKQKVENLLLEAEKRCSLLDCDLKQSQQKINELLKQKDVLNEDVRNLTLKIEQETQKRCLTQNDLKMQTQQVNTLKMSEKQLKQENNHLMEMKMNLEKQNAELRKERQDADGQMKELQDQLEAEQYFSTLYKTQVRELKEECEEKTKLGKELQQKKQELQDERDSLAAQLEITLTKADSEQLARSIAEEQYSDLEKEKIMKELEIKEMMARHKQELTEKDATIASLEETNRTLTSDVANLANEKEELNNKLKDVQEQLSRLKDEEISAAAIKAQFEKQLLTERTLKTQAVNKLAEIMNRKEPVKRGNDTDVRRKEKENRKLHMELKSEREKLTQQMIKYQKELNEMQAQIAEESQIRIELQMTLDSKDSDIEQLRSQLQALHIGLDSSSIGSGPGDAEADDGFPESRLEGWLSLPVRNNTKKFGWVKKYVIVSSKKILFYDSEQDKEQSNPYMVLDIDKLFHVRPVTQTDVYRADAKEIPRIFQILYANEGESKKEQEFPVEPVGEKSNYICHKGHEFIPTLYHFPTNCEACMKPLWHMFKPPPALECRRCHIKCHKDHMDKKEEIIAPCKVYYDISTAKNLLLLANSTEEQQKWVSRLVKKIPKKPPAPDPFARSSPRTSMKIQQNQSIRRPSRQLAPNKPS

For `NCC(C(=O)Nc1cccc2c(-c3cn[nH]c3)c[nH]c12)c1ccc(CO)cc1` (racemic) [Example 1, N-(3-(1H-pyrazol-4-yl)-1H-indol-7-yl)-3-amino-2-(4-(hydroxymethyl)phenyl)propanamide], the IC50 (usually the midpoint of a concentration-inhibition curve) in test [1] amounted to 0.27 nM; in test [2], 0.59 nM.

Regarding `COc1cccc(C(CN)C(=O)Nc2cccc3c(-c4cn[nH]c4)c[nH]c23)c1` (racemic) [Example 16, N-(3-(1H-pyrazol-4-yl)-1H-indol-7-yl)-3-amino-2-(3-methoxyphenyl)propanamide], the values for the IC50 in test [1] and in test [2] were 0.37 nM and 0.84 nM, respectively.

Take `CN1CCN(C(C(=O)Nc2cccc3c(-c4cn[nH]c4)c[nH]c23)c2ccccc2)CC1` (racemic) [Example 46, 2-(4-methylpiperazin-1-yl)-2-phenyl-N-[3-(1H-pyrazol-4-yl)-1H-indol-7-yl]acetamide]: the IC50 in test [1] turned out to be 2.3 nM; in test [2], 4 nM.

In the case of `NCC(C(=O)Nc1cccc2c(-c3cn[nH]c3)c[nH]c12)c1cccc(C(=O)O)c1` (racemic) [Example 70, 3-(2-amino-1-{[3-(1H-pyrazol-4-yl)-1H-indol-7-yl]carbamoyl}ethyl)benzoic acid], the IC50 in test [1] turned out to be 0.6 nM; in test [2], 2.2 nM.

For the molecule `N[C@@H](C(=O)Nc1cccc2c(-c3cn[nH]c3)c[nH]c12)c1ccccc1` [Example 8, (2R)-2-amino-2-phenyl-N-[3-(1H-pyrazol-4-yl)-1H-indol-7-yl]acetamide], the IC50 in test [2] worked out at 20 nM.

On to `NC[C@H](C(=O)Nc1cccc2c(-c3cn[nH]c3)c[nH]c12)c1ccccc1` [Example 14, (R)-N-(3-(1H-pyrazol-4-yl)-1H-indol-7-yl)-3-amino-2-phenylpropanamide], for which the IC50 in test [2] was determined as 2.2 nM.

Consider `NC[C@@H](C(=O)Nc1cccc2c(-c3cn[nH]c3)c[nH]c12)c1ccccc1` [Example 15, (S)—N-(3-(1H-pyrazol-4-yl)-1H-indol-7-yl)-3-amino-2-phenylpropanamide], for which the IC50 in test [2] was found to be 1.4 nM.

With `Cc1n[nH]cc1-c1c[nH]c2c(NC(=O)[C@H](CN)c3ccccc3)cccc12` [Example 55, (S)-3-amino-N-(3-(3-methyl-1H-pyrazol-4-yl)-1H-indol-7-yl)-2-phenylpropanamide], the IC50 in test [2] amounted to 2.9 nM.

For `Cc1n[nH]c(C)c1-c1c[nH]c2c(NC(=O)[C@H](CN)c3ccccc3)cccc12` [Example 56, (2S)-3-amino-N-[3-(3,5-dimethyl-1H-pyrazol-4-yl)-1H-indol-7-yl]-2-phenyl-propanamide], the IC50 in test [2] worked out at 1190 nM.

Take `NC[C@@H](C(=O)Nc1cccc2c(-c3c[nH]nc3F)c[nH]c12)c1ccccc1` [Example 57, (S)-3-amino-N-(3-(3-fluoro-1H-pyrazol-4-yl)-1H-indol-7-yl)-2-phenylpropanamide]: the IC50 in test [2] came to 2.7 nM.

With `N[C@@H](Cc1c[nH]cn1)C(=O)Nc1cccc2c(-c3cn[nH]c3)c[nH]c12` [Example 108, (2S)-2-amino-3-(1H-imidazol-4-yl)-N-[3-(1H-pyrazol-4-yl)-1H-indol-7-yl]propanamide], the IC50 in test [2] was found to be 98 nM.

With `COC[C@H](C(=O)Nc1cccc2c(-c3cn[nH]c3)c[nH]c12)N1CCN(C)CC1` [Example 121, (2R)-3-methoxy-2-(4-methylpiperazin-1-yl)-N-[3-(1H-pyrazol-4-yl)-1H-indol-7-yl]propanamide], the IC50 in test [2] amounted to 75 nM.

Consider `N[C@H](Cc1ccccc1)C(=O)Nc1cccc2c(-c3cn[nH]c3)c[nH]c12` [Example 126, (R)-N-(3-(1H-pyrazol-4-yl)-1H-indol-7-yl)-2-amino-3-phenylpropanamide], for which the IC50 in test [2] amounted to 6.3 nM.

Consider `O=C(Nc1cccc2c(-c3cn[nH]c3)c[nH]c12)[C@@H]1CCCN1` [Example 128, (2S)-N-[3-(1H-pyrazol-4-yl)-1H-indol-7-yl]pyrrolidine-2-carboxamide], for which the IC50 in test [2] was 111 nM.

Consider `NC[C@@H](C(=O)Nc1ncnc2c(-c3cn[nH]c3)c[nH]c12)c1ccccc1` [Example 155, (2S)-3-amino-2-phenyl-N-[7-(1H-pyrazol-4-yl)-5H-pyrrolo[3,2-d]pyrimidin-4-yl]propanamide], for which, in test [2], the IC50 amounted to 0.96 nM.

The values above are taken from patent publication US20250346616A1 (DIZAL (JIANGSU) PHARMACEUTICAL CO., LTD., priority 2022, published 2025).
